According to patent publication US8580842B2, “Heteroaryl-substituted 1,3-dihydroindol-2-one derivatives and medicaments containing them” (Abbott GmbH & Co. KG, priority 2003, dated 2013):
pKi: −log10 of the molar value. Structures can show the parent of a compound that is named as a salt.

Molecular target: T1, human V1b receptors (Homo sapiens, UniProt P47901)
T1 construct: expressed in transfected cells; host or cells: CHO-K1 (membrane preparation V1b-3H2)
T1 sequence (P47901 1-424): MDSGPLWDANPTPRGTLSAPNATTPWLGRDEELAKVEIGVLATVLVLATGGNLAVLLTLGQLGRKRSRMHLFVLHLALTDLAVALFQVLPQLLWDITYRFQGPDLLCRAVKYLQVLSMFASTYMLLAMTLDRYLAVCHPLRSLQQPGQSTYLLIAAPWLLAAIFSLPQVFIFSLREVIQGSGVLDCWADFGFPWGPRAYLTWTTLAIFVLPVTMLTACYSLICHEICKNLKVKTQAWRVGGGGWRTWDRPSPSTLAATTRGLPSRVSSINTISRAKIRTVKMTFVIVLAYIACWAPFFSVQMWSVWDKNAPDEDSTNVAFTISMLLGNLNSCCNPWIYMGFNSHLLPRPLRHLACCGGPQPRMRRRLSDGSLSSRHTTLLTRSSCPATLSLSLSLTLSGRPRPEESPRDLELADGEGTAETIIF
Assay: Vasopressin V1b receptor binding assay
Settings: membranes from CHO-K1 cells expressing human V1b receptors, displacement of 1.5 nM 3H-AVP; read-out: Binding affinity for the vasopressin V1b receptor
Outline: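 Membranes from CHO-K1 cells stably expressing human V1b incubated with 1.5 nM ³H-AVP and test compound in 50 mM Tris, 10 mM MgCl2, 0.1% BSA, pH 7.4, 60 min at room temperature; non-specific binding with 10^−6 M AVP. Filtration and scintillation counting in triplicate; binding parameters by non-linear regression.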

Row | pKi | Structure (SMILES)
1 | 6.30 to 7.30 | COc1ncccc1C1(OC(=O)N2CCN(C3CCN(C)CC3)CC2)C(=O)N(S(=O)(=O)c2ccc(C(F)(F)F)cc2)c2ccc(Cl)cc21 (centres unmarked) [Example 122, 4-(1-Methyl-piperidin-4-yl)-piperazine-1-carboxylic acid 5-chloro-3-(2-methoxy-pyridin-3-yl)-2-oxo-1-(4-trifluoromethyl-benzenesulfonyl)-2,3-dihydro-1H-indol-3-yl ester diacetate]
2 | 6.30 to 7.30 | COc1ncccc1C1(OC(=O)N2CCN(C3CCN(C)CC3)CC2)C(=O)N(S(=O)(=O)c2ccc(OC(F)(F)F)cc2)c2ccc(Cl)cc21 (centres unmarked) [Example 123, 4-(1-Methyl-piperidin-4-yl)-piperazine-1-carboxylic acid 5-chloro-3-(2-methoxy-pyridin-3-yl)-2-oxo-1-(4-trifluoromethoxy-benzenesulfonyl)-2,3-dihydro-1H-indol-3-yl ester diacetate]
3 | > 7.30 | CCOc1ccccc1C1(NC(=O)N2CCN(C3CCN(C)CC3)CC2)C(=O)N(S(=O)(=O)c2sccc2OC)c2ccc(OC)cc21 (centres unmarked) [Example 125, 4-(1-Methyl-piperidin-4-yl)-piperazine-1-carboxylic acid [3-(2-ethoxy-phenyl)-5-methoxy-1-(3-methoxy-thiophene-2-sulfonyl)-2-oxo-2,3-dihydro-1H-indol-3-yl]-amide]
4 | > 7.30 | COc1ccc2c(c1)C(OC(=O)N1CCN(C3CCN(C)CC3)CC1)(c1ccccc1OC)C(=O)N2S(=O)(=O)c1cccs1 (centres unmarked) [Example 126, 4-(1-Methyl-piperidin-4-yl)-piperazine-1-carboxylic acid 5-methoxy-3-(2-methoxy-phenyl)-2-oxo-1-(thiophene-2-sulfonyl)-2,3-dihydro-1H-indol-3-yl ester dihydrochloride]
5 | > 7.30 | COc1ccccc1C1(OC(=O)N2CCN(C3CCN(C)CC3)CC2)C(=O)N(S(=O)(=O)c2ccccn2)c2ccc(C)cc21 (centres unmarked) [Example 127, 4-(1-Methyl-piperidin-4-yl)-piperazine-1-carboxylic acid 3-(2-methoxy-phenyl)-5-methyl-2-oxo-1-(pyridine-2-sulfonyl)-2,3-dihydro-1H-indol-3-yl ester dihydrochloride]
6 | > 7.30 | COc1ccccc1C1(OC(=O)N2CCC(N3CCN(C)CC3)CC2)C(=O)N(S(=O)(=O)c2cccs2)c2ccc(C)cc21 (centres unmarked) [Example 130, 4-(4-Methyl-piperazin-1-yl)-piperidine-1-carboxylic acid 3-(2-methoxy-phenyl)-5-methyl-2-oxo-1-(thiophene-2-sulfonyl)-2,3-dihydro-1H-indol-3-yl ester dihydrochloride]
7 | > 7.30 | Cc1ccccc1C1(OC(=O)N2CCN(C3CCN(C)CC3)CC2)C(=O)N(S(=O)(=O)c2ccccn2)c2ccc(C#N)cc21 (centres unmarked) [Example 134, 4-(1-Methyl-piperidin-4-yl)-piperazine-1-carboxylic acid 5-cyano-2-oxo-1-(pyridine-2-sulfonyl)-3-o-tolyl-2,3-dihydro-1H-indol-3-yl ester dihydrochloride]
8 | > 7.30 | COc1ccccc1C1(OC(=O)N2CCN(C3CCN(C)CC3)CC2)C(=O)N(S(=O)(=O)c2cccs2)c2ccc(F)cc21 (centres unmarked) [Example 136, 4-(1-Methyl-piperidin-4-yl)-piperazine-1-carboxylic acid 5-fluoro-3-(2-methoxy-phenyl)-2-oxo-1-(thiophene-2-sulfonyl)-2,3-dihydro-1H-indol-3-yl ester]
9 | > 7.30 | CCOc1ccccc1C1(OC(=O)N2CCN(C3CCN(C)CC3)CC2)C(=O)N(S(=O)(=O)c2sccc2OC)c2ccc(Cl)cc21 (centres unmarked) [Example 143, 4-(1-Methyl-piperidin-4-yl)-piperazine-1-carboxylic acid 5-chloro-3-(2-ethoxy-phenyl)-1-(3-methoxy-thiophene-2-sulfonyl)-2-oxo-2,3-dihydro-1H-indol-3-yl ester]
10 | > 7.30 | CCOc1ccccc1C1(OC(=O)N2CCN(C3CCN(C)CC3)CC2)C(=O)N(S(=O)(=O)c2ccc(C)cn2)c2ccc(Cl)cc21 (centres unmarked) [Example 145, 4-(1-Methyl-piperidin-4-yl)-piperazine-1-carboxylic acid 5-chloro-3-(2-ethoxy-phenyl)-1-(5-methyl-pyridine-2-sulfonyl)-2-oxo-2,3-dihydro-1H-indol-3-yl ester]
11 | > 7.30 | CCOc1ccccc1C1(OC(=O)N2CCN(C3CCN(C)CC3)CC2)C(=O)N(S(=O)(=O)c2cccc3cccnc23)c2ccc(OC)cc21 (centres unmarked) [Example 154, 4-(1-Methyl-piperidin-4-yl)-piperazine-1-carboxylic acid 3-(2-ethoxy-phenyl)-5-methoxy-2-oxo-1-(quinoline-8-sulfonyl)-2,3-dihydro-1H-indol-3-yl ester]
12 | > 7.30 | CCOc1ccccc1C1(OC(=O)N2CCN(C3CCN(C)CC3)CC2)C(=O)N(S(=O)(=O)c2cccc3cccnc23)c2ccc(C#N)cc21 (centres unmarked) [Example 158, 4-(1-Methyl-piperidin-4-yl)-piperazine-1-carboxylic acid 5-cyano-3-(2-ethoxy-phenyl)-2-oxo-1-(quinoline-8-sulfonyl)-2,3-dihydro-1H-indol-3-yl ester]
13 | 6.30 to 7.30 | COc1ncccc1C1(OC(=O)N2CCN(C3CCN(C)CC3)CC2)C(=O)N(S(=O)(=O)c2cn(C)cn2)c2ccc(Cl)cc21 (centres unmarked) [Example 165, 4-(1-Methyl-piperidin-4-yl)-piperazine-1-carboxylic acid 5-chloro-3-(2-methoxy-pyridin-3-yl)-1-(1-methyl-1H-imidazole-4-sulfonyl)-2-oxo-2,3-dihydro-1H-indol-3-yl ester diacetate]
14 | 6.30 to 7.30 | COc1ncccc1C1(OC(=O)N2CCN(C3CCN(C)CC3)CC2)C(=O)N(S(=O)(=O)c2cn(C)c(C)n2)c2ccc(Cl)cc21 (centres unmarked) [Example 166, 4-(1-Methyl-piperidin-4-yl)-piperazine-1-carboxylic acid 5-chloro-1-(1,2-dimethyl-1H-imidazole-4-sulfonyl)-3-(2-methoxy-pyridin-3-yl)-2-oxo-2,3-dihydro-1H-indol-3-yl ester diacetate]
15 | > 7.30 | COc1ncccc1C1(OC(=O)N2CCN(C3CCN(C)CC3)CC2)C(=O)N(S(=O)(=O)c2ccc(C)s2)c2ccc(Cl)cc21 (centres unmarked) [Example 168, 4-(1-Methyl-piperidin-4-yl)-piperazine-1-carboxylic acid 5-chloro-3-(2-methoxy-pyridin-3-yl)-1-(5-methyl-thiophene-2-sulfonyl)-2-oxo-2,3-dihydro-1H-indol-3-yl ester diacetate]
16 | 6.30 to 7.30 | COc1ncccc1C1(OC(=O)N2CCN(C3CCN(C)CC3)CC2)C(=O)N(S(=O)(=O)c2cc(C)sc2C)c2ccc(Cl)cc21 (centres unmarked) [Example 169, 4-(1-Methyl-piperidin-4-yl)-piperazine-1-carboxylic acid 5-chloro-1-(2,5-dimethyl-thiophene-3-sulfonyl)-3-(2-methoxy-pyridin-3-yl)-2-oxo-2,3-dihydro-1H-indol-3-yl ester diacetate]
17 | 6.30 to 7.30 | COc1ncccc1C1(OC(=O)N2CCN(C3CCN(C)CC3)CC2)C(=O)N(S(=O)(=O)c2csc3ccccc23)c2ccc(Cl)cc21 (centres unmarked) [Example 170, 4-(1-Methyl-piperidin-4-yl)-piperazine-1-carboxylic acid 1-(benzo[b]thiophene-3-sulfonyl)-5-chloro-3-(2-methoxy-pyridin-3-yl)-2-oxo-2,3-dihydro-1H-indol-3-yl ester diacetate]
